In patent US20070099912A1, “Pyrrolo[2,3-F] and [3,2-F]Isoquinolinone derivatives as 5-hydroxytryptamine-6 ligands” (Wyeth, priority 2005, published 2007):
Structures can show the parent of a compound that is named as a salt.

Tests used:
[1] = target: human cloned 5-HT6 receptors (Homo sapiens, UniProt P50406)
Chain of human cloned 5-HT6 receptors (P50406 whole entry): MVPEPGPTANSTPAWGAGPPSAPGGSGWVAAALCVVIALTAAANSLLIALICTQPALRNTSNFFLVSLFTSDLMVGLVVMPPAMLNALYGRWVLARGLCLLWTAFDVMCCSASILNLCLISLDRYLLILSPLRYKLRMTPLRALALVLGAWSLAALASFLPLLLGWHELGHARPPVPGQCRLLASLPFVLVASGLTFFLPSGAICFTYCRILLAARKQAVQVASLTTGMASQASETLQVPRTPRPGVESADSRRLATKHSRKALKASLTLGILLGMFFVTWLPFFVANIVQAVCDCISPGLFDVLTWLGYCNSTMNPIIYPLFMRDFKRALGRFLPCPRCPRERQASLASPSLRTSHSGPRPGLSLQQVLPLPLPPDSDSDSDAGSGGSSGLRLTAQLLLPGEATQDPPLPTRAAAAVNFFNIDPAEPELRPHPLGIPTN

melting point [°C] | Ki [1] [µM] | Structure (SMILES)
229 to 231 | 0.507 | O=c1c2ccc3c(ccn3CCN3CCCC3)c2ccn1Cc1ccc(F)cc1 [Example 15, 7-(4-fluorobenzyl)-3-(2-pyrrolidin-1-ylethyl)-3,7-dihydro-6H-pyrrolo[3,2-f]isoquinolin-6-one]
– | 0.18 | NCCn1ccc2ccc3c(=O)n(Cc4ccccc4)ccc3c21 [Example 7, 1-(2-Aminoethyl)-7-benzyl-1,7-dihydro-6H-pyrrolo[2,3-f]isoquinolin-6-one hydrochloride]
100 to 102 | – | CN(C)CCn1ccc2ccc3c(=O)n(Cc4ccccc4)ccc3c21 (as salt: hydrochloride) [Example 6, 7-Benzyl-1-[2-(dimethylamino)ethyl]-1.7-dihydro-6H-pyrrolo[2,3-f]isoquinolin-6-one hydrochloride]
49 to 51 | – | CN(C)CCCn1ccc2c3ccn(Cc4ccc(F)cc4)c(=O)c3ccc21 [Example 16, 3-[3-(dimethylamino)propyl]-7-(4-fluorobenzyl)-3,7-dihydro-6H-pyrrolo[3,2-f]isoquinolin-6-one]
– | 0.388 | CN(C)CCn1ccc2ccc3c(=O)n(Cc4ccccc4)ccc3c21 [Example 6, 7-Benzyl-1-[2-(dimethylamino)ethyl]-1.7-dihydro-6H-pyrrolo[2,3-f]isoquinolin-6-one hydrochloride]
221 to 223 | 0.379 | CN(C)CCn1ccc2c3ccn(Cc4ccc(F)cc4)c(=O)c3ccc21 [Example 14, 3-[2-(dimethylamino)ethyl]-7-(4-fluorobenzyl)-3,7-dihydro-6H-pyrrolo[3,2-f]isoquinolin-6-one]
203 to 205 | 0.426 | NCCn1ccc2c3ccn(Cc4ccc(F)cc4)c(=O)c3ccc21 [Example 13, 3-(2-aminoethyl)-7-(4-fluorobenzyl)-3,7-dihydro-6H-pyrrolo[3,2-f]isoquinolin-6-one]
153 to 154 | – | NCCn1ccc2ccc3c(=O)n(Cc4ccccc4)ccc3c21 (as salt: hydrochloride) [Example 7, 1-(2-Aminoethyl)-7-benzyl-1,7-dihydro-6H-pyrrolo[2,3-f]isoquinolin-6-one hydrochloride]
